Data on two compounds can be found in PMC9607081 (Membranes, 2022).

Assay [1] deals with T1, human GlyR α1 subunit P30A (Homo sapiens, UniProt P23415, P58A).
T1 construct: expressed in transfected cells; host or cells: Xenopus laevis oocytes injected with receptor mRNA
As to the kind of experiment: Two-electrode voltage clamp of Xenopus oocytes expressing P30A GlyR. The format is cell-based. Particulars: n = 5. The procedure:
Injection volumes were 50–100 nL per cell.
All experiments were performed at 22–25 °C. […] The holding potential was −60 mV unless otherwise specified.
Background: Two-electrode voltage clamp holds a large cell at a set potential and records current.

Assay [2] concerns human GlyR α1 subunit P230 (M1) substituted with 3MeP. Particulars: Table 2, P230 3MeP, n = 4. The procedure:
(§1) The cDNA for the human GlyR α1 subunit was in pGEMHE (ThermoFischer Scientific, Bishops Stortford, UK). Site-directed mutagenesis was performed using QuikChange (Agilent Technologies, Milton Keynes, UK) to generate the appropriate codon. For non-canonical amino acid mutants and conventional mutants generated by nonsense suppression, the site of interest was mutated to the TAG stop codon. Receptor mRNA was then prepared by in vitro runoff transcription using the Ambion T7 mMessage mMachine kit (ThermoFischer Scientific, Bishops Stortford, UK). Noncanonical amino acids were ligated to tRNA as previously described.
(§2) Stage V-VI oocytes of Xenopus laevis were harvested and injected with RNAs as described previously. For nonsense suppression experiments, each cell was injected with 50–100 ng each of receptor mRNA and tRNA charged with the appropriate Pro analogue ~48 h before recording. For wild type and conventional mutants, each cell received a single injection of 10–25 ng of receptor mRNA ~24 h before recording. Injection volumes were 50–100 nL per cell.
(§3) As a negative control for suppression experiments at each site, unligated tRNA was co-injected with mRNA in the same manner as charged tRNA. […] Pro recovery (injecting tRNA charged with Pro to regenerate a wild type channel via nonsense suppression) was used alongside Pro analogues as a positive control.
(§4) Two-electrode voltage clamping of Xenopus oocytes was performed using standard electrophysiological procedures as previously, using an OpusXpress system (Axon Instruments, Inc., Union City, CA, USA). All experiments were performed at 22–25 °C. […] The holding potential was −60 mV unless otherwise specified. […] Data were analysed using Prism (GraphPad Software Inc., San Diego, CA, USA), fitting concentration-response data to the four-parameter logistic equation. Statistical analysis was performed using ANOVA with a Dunnett’s multiple comparisons post test.

For assay [3], the target named is human GlyR α1 subunit P230 (M1) substituted with Vah (Homo sapiens, UniProt P23415). Particulars: Table 2, n = 4. The procedure:
as §1, §2, §3, §4

The test system of assay [4] is human GlyR α1 subunit P30 (α1β1L) substituted with CFP. The method, then:
as §1, §2, §3, §4

Assay [5] relates to human GlyR α1 subunit P30 (α1β1L) substituted with 3MeP. Particulars: Table 2, P30 3MeP, n = 4. The procedure:
as §1, §2, §3, §4

Assay [6] concerns the target human GlyR α1 subunit P96 (loopA) substituted with Pro (Homo sapiens, UniProt P23415). Particulars: Table 2, n = 5. The procedure: as §1, §2, §3, §4
For assay [7], the system named is human GlyR α1 subunit P30 (α1β1L) substituted with Pip. The procedure:
as §1, §2, §3, §4

The test system of assay [8] is human GlyR α1 subunit P96 (loopA) substituted with TFP. The procedure: as §1, §2, §3, §4
The subject of assay [9] is human GlyR α1 subunit P96 (loopA) substituted with 2MeP. Particulars: Table 2, P96 2MeP, n = 4. The method, then: as §1, §2, §3, §4
Assay [10] relates to human GlyR α1 subunit P230 (M1) substituted with Pip. The procedure:
as §1, §2, §3, §4

In assay [11] the target is human GlyR α1 subunit P30 (α1β1L) substituted with Pro (Homo sapiens, UniProt P23415). Particulars: Table 2, n = 6. The method, then:
as §1, §2, §3, §4

The subject of assay [12] is human GlyR α1 subunit P30 (α1β1L) substituted with 2MeP. Particulars: Table 2, P30 2MeP, n = 5. The method, then: as §1, §2, §3, §4
[13] abbreviates: Table 2, nonsense suppression, n = 6.
[14] abbreviates: Table 2, nonsense suppression, n = 4.

T1 sequence (P23415 29-457 P58A): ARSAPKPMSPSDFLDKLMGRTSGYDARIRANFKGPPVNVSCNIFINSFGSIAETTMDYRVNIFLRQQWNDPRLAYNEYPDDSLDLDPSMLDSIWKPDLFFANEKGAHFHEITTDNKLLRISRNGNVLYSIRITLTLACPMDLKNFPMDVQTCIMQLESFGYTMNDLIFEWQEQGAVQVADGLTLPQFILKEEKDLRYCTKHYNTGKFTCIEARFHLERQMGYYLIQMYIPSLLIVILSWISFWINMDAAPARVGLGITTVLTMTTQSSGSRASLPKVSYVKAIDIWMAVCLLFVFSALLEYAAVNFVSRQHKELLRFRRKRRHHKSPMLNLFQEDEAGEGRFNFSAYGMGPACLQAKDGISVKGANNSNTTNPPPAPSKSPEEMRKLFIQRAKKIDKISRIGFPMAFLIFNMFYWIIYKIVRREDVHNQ
Sequence of human GlyR α1 subunit P230 (M1) substituted with Vah (P23415 29-250 limits assumed): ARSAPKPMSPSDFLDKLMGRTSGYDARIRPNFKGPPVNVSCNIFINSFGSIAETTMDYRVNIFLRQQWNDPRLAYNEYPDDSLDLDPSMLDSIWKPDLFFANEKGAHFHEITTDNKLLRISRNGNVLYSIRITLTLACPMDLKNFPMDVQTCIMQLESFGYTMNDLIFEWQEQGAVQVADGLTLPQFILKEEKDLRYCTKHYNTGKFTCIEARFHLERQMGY
Sequence of human GlyR α1 subunit P30 (α1β1L) substituted with Pro (P23415 29-457): as the sequence (P23415 29-457 P58A) above, with A30P counted along it
Sequence of human GlyR α1 subunit P96 (loopA) substituted with Pro (P23415 29-457): as the sequence (P23415 29-457 P58A) above, with A30P counted along it

For `NCCS(=O)(=O)O` [Tau, taurine], in assay [1], the 50% effective concentration (EC50) was 1230 µM and the ImaxTau/ImaxGly was determined as 60 ± 5%.
Regarding `NCC(=O)O` [Gly, glycine], the nH was found to be 1.1 ± 0.4 in assay [2]; 2.6 ± 0.4 in [3]; 2.8 ± 0.7 in [4] (Table 2, n = 6); 3.0 ± 2.7 in assay [5]; 2.7 ± 1.1 in [6]; 2.7 ± 0.7 in [7] (Table 2, n = 4). For the same compound, the nH in [8] (Table 2, n = 4) is listed as 2.9 ± 0.7; in [9], 2.8 ± 0.5; in assay [10] (Table 2, n = 4), 1.1 ± 0.2; in assay [11] it was 2.9 ± 1.2; in [12], 1.6 ± 0.3. Moreover, the 50% effective concentration (EC50) in assay [2] (nonsense suppression) was determined as 34 µM; in assay [4] (setting [13]) it was 150 µM; in assay [5] (nonsense suppression), 8.9 µM; in [7] (setting [14]), 36 µM; in [8] (setting [14]) it was 127 µM; in [9] (nonsense suppression) it was 254 µM. The EC50 in assay [10] (setting [14]) was found to be 68 µM; in [12] (nonsense suppression), 368 µM. Besides, the pEC50 in assay [2] (nonsense suppression) amounted to 4.471 ± 0.08 M; in assay [4] (setting [13]), 3.825 ± 0.06 M; in [5] (nonsense suppression), 5.046 ± 0.05 M; in assay [7] (setting [14]), 4.439 ± 0.03 M; in [8] (setting [14]), 3.898 ± 0.03 M; in assay [9] (nonsense suppression), 3.596 ± 0.03 M. Further, the pEC50 in assay [10] (setting [14]) is on record as 4.166 ± 0.08 M; in assay [12] (nonsense suppression), 3.434 ± 0.06 M.

Broadly, the EC50 is the midpoint of the concentration-response curve. A higher EC50 goes with a need for much substance.
